The source of these data is the Kinase Knowledgebase extract (Sharma et al. 2016).

Values joined by “and” are separate entries in the source; they are usually repeats but may differ in a detail not shown here. Equal values may be shown once.

The target of assay [1] is PIK3CB (Human) (UniProt P42338). The experiment in a line: Inhibition of PIK3CB Kinase (ATP Loss) Activity.
Assay [2] concerns the target EGFR (human) (UniProt P00533).
Assay [3] has as its target EGFR (human) (UniProt P00533). Particulars: a431.
The target in assay [4] is EGFR (Balb/c mice) (UniProt P00533).
The target of assay [5] is EGFR (murine) (UniProt P00533). As to conditions: nih3t3.
In assay [6] the target is EGFR (human) (UniProt P00533). As to conditions: a431. This is another data set of the same source.
Chain of EGFR (human) (P00533 whole entry, looked up): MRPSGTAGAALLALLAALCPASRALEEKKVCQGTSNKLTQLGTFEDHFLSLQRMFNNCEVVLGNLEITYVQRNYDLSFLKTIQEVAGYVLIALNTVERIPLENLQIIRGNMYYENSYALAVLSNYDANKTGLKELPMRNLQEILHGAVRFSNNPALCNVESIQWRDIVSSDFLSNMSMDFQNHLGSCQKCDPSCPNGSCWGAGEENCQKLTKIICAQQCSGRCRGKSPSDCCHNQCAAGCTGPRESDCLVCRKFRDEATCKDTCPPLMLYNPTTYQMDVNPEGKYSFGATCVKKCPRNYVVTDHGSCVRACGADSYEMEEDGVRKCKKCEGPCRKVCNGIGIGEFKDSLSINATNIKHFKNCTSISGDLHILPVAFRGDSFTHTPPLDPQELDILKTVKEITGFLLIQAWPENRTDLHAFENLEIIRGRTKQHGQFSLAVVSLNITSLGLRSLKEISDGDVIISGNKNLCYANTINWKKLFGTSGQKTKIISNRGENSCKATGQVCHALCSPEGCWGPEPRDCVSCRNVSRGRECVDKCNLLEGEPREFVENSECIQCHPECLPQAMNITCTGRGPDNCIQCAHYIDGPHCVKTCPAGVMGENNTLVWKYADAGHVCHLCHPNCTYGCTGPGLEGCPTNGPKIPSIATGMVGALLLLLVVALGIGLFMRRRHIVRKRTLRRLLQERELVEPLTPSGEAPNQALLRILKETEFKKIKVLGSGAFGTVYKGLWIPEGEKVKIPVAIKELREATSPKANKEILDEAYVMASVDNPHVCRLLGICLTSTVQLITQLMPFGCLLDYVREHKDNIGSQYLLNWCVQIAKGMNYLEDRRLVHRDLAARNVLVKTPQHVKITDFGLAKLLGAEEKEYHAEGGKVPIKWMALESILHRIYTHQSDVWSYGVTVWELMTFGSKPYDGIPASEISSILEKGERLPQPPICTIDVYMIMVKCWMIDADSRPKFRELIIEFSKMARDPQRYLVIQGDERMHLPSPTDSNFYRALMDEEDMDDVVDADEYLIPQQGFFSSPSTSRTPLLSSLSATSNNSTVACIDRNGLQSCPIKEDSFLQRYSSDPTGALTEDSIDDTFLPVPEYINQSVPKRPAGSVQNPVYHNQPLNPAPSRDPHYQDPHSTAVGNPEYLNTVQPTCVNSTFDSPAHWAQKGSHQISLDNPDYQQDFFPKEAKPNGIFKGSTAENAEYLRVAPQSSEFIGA
Assay [7] addresses EGFR (human) (UniProt P00533). Particulars: a431. The source holds these as a separate data set.
For assay [8], the target named is EGFR (human) (UniProt P00533). This is another data set of the same source.
Assay [9] has as its target MAPK14 (human) (UniProt Q16539). The experiment in a line: Inhibition of MAPK14 Kinase Activity.
For assay [10] the target is unchanged. The experiment in a line: Cell-Based Assay. As to conditions: a375.
The target of assay [11] is PIK3CA (human) (UniProt P42336). The experiment in a line: Assesment of Cell Proliferation of IGROV-1 Cells Using SRB Assay.
Chain of PIK3CA (human) (P42336 whole entry, looked up): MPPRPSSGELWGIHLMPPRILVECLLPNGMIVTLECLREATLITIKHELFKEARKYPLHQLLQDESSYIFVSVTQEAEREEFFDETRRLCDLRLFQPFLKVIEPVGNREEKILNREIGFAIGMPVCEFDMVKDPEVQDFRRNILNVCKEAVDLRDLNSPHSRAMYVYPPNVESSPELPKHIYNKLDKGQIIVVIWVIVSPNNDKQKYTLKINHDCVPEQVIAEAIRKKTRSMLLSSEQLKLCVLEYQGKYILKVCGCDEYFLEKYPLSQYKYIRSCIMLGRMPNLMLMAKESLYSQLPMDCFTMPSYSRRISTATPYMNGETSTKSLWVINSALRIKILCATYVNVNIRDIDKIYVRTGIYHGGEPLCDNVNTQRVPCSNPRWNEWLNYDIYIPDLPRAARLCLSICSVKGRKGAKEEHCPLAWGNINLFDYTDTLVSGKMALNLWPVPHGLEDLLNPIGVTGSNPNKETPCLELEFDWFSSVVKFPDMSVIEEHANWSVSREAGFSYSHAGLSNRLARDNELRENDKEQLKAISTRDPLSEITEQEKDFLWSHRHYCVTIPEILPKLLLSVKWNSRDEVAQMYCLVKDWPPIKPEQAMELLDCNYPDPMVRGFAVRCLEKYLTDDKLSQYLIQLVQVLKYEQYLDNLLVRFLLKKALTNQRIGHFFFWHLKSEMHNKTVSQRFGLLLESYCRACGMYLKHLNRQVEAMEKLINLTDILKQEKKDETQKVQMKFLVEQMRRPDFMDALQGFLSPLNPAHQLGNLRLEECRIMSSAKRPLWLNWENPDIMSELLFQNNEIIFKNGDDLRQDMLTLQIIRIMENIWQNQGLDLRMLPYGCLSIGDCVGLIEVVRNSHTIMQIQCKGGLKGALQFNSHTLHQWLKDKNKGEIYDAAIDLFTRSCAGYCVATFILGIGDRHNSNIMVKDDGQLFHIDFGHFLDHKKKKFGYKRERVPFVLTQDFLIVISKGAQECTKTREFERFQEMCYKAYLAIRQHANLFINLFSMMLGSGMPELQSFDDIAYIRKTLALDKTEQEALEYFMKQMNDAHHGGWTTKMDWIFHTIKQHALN
Assay [12] shares this target. The assay can be described thus: Inhibition of PIK3CA Kinase Activity.
The target of assay [13] is PIK3CB;PIK3CG;PIK3CD;PIK3CA (human) (UniProt P48736). The assay can be described thus: Assessment of PIK3CA/PIK3CB/PIK3CD/PIK3CG Kinase Activity.
The target in assay [14] is PIK3CB;PIK3CD;PIK3CA (human) (UniProt O00329). The assay can be described thus: Assessment of PI3K Kinase Activity.
Chain of PIK3CB;PIK3CD;PIK3CA (human) (O00329 whole entry, looked up): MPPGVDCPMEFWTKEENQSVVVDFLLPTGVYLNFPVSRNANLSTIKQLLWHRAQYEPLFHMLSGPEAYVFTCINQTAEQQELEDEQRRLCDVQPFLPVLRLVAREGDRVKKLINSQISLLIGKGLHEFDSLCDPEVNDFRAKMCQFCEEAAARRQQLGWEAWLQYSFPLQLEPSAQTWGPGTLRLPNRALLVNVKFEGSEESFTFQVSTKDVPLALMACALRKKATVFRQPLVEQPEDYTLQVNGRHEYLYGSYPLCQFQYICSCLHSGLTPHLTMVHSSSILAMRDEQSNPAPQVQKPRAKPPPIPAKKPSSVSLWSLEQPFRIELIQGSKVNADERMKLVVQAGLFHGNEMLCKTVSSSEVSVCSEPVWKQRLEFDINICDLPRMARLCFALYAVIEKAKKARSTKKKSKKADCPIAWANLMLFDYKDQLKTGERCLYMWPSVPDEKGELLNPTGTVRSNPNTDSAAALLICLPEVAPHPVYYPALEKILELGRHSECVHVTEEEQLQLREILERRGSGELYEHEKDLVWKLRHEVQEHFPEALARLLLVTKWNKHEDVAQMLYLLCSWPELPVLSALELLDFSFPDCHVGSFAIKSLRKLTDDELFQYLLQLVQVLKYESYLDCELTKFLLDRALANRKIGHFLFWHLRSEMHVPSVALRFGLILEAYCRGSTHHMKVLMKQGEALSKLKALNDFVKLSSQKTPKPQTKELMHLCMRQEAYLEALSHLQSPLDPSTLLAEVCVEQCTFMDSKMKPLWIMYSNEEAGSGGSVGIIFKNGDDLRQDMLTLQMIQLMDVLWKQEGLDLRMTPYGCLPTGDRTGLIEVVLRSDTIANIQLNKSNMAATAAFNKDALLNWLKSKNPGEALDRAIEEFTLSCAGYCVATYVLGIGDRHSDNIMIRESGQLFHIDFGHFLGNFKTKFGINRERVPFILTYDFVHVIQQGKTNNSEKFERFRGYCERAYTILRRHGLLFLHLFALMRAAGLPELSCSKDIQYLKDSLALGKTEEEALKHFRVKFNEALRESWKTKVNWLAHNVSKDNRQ
The target of assay [15] is EGFR (human) (UniProt P00533). The source holds these as a separate data set.
In assay [16] the target is EGFR (human) (UniProt P00533). As to conditions: kb.
In assay [17] the target is EGFR (human) (UniProt P00533). The source holds these as a separate data set.
Assay [18] concerns the target PIK3CA (human) (UniProt P42336). The assay can be described thus: Assessment of PIK3CA Kinase Activity in NZB5 Cells.
Assay [19] has the same target. The experiment in a line: Assessment of PIK3CA Kinase Activity in NZOV9 Cells.
For assay [20], the target named is EGFR (human) (UniProt P00533). This is another data set of the same source.
Assay [21] deals with EGFR (human) (UniProt P00533). Particulars: a431. The source holds these as a separate data set.
Assay [22] concerns the target EGFR (human) (UniProt P00533). Particulars: a431. The source holds these as a separate data set.
The target in assay [23] is EGFR (human) (UniProt P00533). The source holds these as a separate data set.
For assay [24], the target named is EGFR (UniProt P00533).

Chain of MAPK14 (human) (Q16539 whole entry, looked up): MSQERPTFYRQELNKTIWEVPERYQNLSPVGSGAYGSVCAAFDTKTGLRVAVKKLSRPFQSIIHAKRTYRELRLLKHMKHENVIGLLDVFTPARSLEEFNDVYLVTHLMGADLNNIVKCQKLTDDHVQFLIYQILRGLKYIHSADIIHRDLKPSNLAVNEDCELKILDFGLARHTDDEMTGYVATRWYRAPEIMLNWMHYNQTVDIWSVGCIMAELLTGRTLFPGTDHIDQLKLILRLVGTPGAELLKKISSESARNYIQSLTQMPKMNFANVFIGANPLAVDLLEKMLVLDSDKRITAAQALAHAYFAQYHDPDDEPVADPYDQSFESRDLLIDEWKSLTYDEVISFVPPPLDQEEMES
Chain of PIK3CB (Human) (P42338 whole entry, looked up): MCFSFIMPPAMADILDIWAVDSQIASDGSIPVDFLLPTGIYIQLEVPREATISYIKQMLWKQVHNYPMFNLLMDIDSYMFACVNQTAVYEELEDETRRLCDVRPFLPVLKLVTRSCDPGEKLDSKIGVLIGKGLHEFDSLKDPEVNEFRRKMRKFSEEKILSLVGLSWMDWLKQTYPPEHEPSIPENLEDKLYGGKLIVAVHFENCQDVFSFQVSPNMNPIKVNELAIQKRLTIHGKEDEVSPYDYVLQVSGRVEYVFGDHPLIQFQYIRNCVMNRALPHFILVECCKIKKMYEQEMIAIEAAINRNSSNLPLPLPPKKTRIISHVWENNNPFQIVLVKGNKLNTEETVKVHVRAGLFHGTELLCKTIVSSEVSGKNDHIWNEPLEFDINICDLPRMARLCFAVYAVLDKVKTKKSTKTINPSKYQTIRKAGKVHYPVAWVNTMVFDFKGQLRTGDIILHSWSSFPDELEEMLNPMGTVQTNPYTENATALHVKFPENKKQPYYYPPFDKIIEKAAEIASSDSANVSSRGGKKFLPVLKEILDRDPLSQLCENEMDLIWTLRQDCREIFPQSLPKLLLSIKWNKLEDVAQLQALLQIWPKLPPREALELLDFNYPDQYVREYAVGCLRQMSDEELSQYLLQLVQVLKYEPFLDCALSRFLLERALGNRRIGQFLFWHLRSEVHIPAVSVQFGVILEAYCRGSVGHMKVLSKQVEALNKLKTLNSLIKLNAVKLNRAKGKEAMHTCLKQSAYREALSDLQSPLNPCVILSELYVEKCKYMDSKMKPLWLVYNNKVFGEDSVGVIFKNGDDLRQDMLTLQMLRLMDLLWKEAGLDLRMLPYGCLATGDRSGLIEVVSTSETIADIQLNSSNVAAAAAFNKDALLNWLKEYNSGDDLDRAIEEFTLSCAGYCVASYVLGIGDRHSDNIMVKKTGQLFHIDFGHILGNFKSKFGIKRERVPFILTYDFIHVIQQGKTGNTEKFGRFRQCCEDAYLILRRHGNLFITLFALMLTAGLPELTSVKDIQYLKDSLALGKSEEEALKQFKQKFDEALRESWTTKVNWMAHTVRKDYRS

Consider `O=S(=O)(Nc1cc(-c2ccc3cnccc3c2)cnc1Cl)c1ccc(F)cc1`, for which the IC50 (in general, the concentration that gives 50% inhibition) in assay [1] turned out to be 40 µM.

Consider `COc1cc2ncnc(Nc3ccc4occc4c3)c2cc1OCCCCCCC(=O)NO`, for which the concentration for half-maximal inhibition (IC50) in assay [2] is no more than 0.1 µM.

In the case of `COc1cc2ncnc(Nc3cccc(Cl)c3)c2cc1OC`, the 50% growth inhibitory concentration (GI50) (commonly the concentration that inhibits growth by half) in [3] was found to be 0.302 µM. In addition, in assay [4], the LD50 (in general, the dose at which mortality reaches 50%) is greater than 200 mg/kg. Further, the half-maximal inhibitory concentration (IC50) in assay [5] is less than 0.015 µM.

On to `Cc1cc2c(F)c(Nc3ncnc4cc(OCCCN5CCCC5)c(OCCCCCC(=O)NO)cc34)ccc2[nH]1`, for which the IC50 in [2] is no more than 0.1 µM.

For the compound `Nc1nc(Nc2ccc(Cl)cc2F)c2cc(Cc3cccc4ccccc34)[nH]c2n1`, the results for the 50% inhibitory concentration (IC50) in assay [6] and in [7] were greater than 200 µM and 46.7 µM, respectively.

For `O=C(CO)N1CCC(c2[nH]nc(-c3ccc(Cl)cc3)c2-c2ccncc2)CC1`, the half-inhibitory concentration (IC50) in assay [8] was less than 1 µM; in assay [9], 0.111 µM.

In turn, `O=C(CO)N1CCC(c2[nH]nc(-c3ccc(Cl)cc3)c2-c2ccncn2)CC1` returned a concentration for half-maximal inhibition (IC50) in [8] of 0.101 µM.

The compound `O=C1Nc2ccc(I)cc2/C1=C/c1cc(Br)c(O)c(Br)c1` came in with an IC50 in assay [10] greater than 10 µM.

With `c1ccc(CCNc2nc(-c3ccc4cc[nH]c4c3)cc(N3CCOCC3)n2)nc1`, in assay [11], the GI50 was 3.6 µM. The same compound returned an IC50 in assay [12] of 8.9 µM.

On to `CS(=O)(=O)Nc1ccc(-c2c(F)cnc3[nH]c4cnc(-c5cccnc5)cc4c23)cc1`, for which, in assay [13], the 50% inhibitory concentration (IC50) fell in the range of 0.1 to 1 µM.

Turning to `CN1CCC(c2[nH]nc(-c3ccc(Cl)cc3)c2-c2ccncn2)CC1`, the 50% inhibitory concentration (IC50) in assay [8] was less than 1 µM; in [9] it was 0.048 µM.

For the compound `CS(=O)(=O)Cc1cc(N2CCOCC2)nc(-c2ccc(NS(C)(=O)=O)cc2)n1`, the IC50 in assay [14] was found to be 54 µM.

As for `Cc1cc(NC(=O)Nc2ccc(-c3nc(CS(C)(=O)=O)cc(N4CCOCC4)n3)cc2)no1`, in assay [14], the IC50 is 57.8 µM and 91.2 µM.

`COc1cc2c(Nc3ccc4[nH]c(C)cc4c3F)ncnc2cc1OCCCCCCC(=O)NO`: the IC50 in assay [2] is no more than 0.1 µM.

The compound `C=C=CCCCCCOc1cc2c(Nc3ccc(F)c(Cl)c3)ncnc2cc1OC` came in with a 50% growth inhibitory concentration (GI50) in [3] of 0.586 µM. Also, the half-maximal inhibitory concentration (IC50) in assay [15] is 0.00445 µM.

Regarding `CNC(=O)[C@H]1C[C@H](Oc2cc3c(Nc4cccc(Cl)c4F)ncnc3cc2OC)CCN1C`, the half-inhibitory concentration (IC50) in assay [16] stood at 0.023 µM. This counts as double-digit nanomolar.

As to `CS(=O)(=O)Nc1cccc(-c2cc(N3CCOCC3)nc(OCc3ccccn3)n2)c1`, in assay [11], the 50% growth inhibitory concentration (GI50) came to 13.5 µM. In assay [12], this compound returned a 50% inhibitory concentration (IC50) of 6.2 µM.

In assay [17], `CCN(c1ccc(N2CCOCC2)cc1)c1ncnc2nc(Nc3ccc(S(N)(=O)=O)cc3)sc12` showed an IC50 of 10.1 µM. This lies in the double-digit micromolar range.

On to `CC(=NN(C)S(=O)(=O)c1cc([N+](=O)[O-])ccc1C)c1cnn2ccc(Br)cc12`, for which the half-maximal inhibitory concentration (IC50) in assay [18] and in assay [19] was greater than 20 µM each time.

Consider `Cc1ncnc(Nc2ccc(OCc3cccc(F)c3)c(Cl)c2)c1-c1ccc(CNC(C)C)cc1`, for which, in [20], the IC50 was determined as 0.024 µM.

For `COc1ccc(OC)c(Cc2cc3c(Nc4cccc(Br)c4)ncnc3[nH]2)c1`, the IC50 in assay [21] is 4.5 µM.

On to `CN(C)c1cc(-c2ccc3ncccc3c2)cnc1Cl`, for which, in [1], the half-maximal inhibitory concentration (IC50) came to 40 µM. That is a double-digit micromolar value.

As to `Cc1ccc([N+](=O)[O-])cc1S(=O)(=O)N(C)N=Cc1cnn2ccc(O)cc12`, the IC50 in assay [18] and in assay [19] was greater than 20 µM each time.

With `CNC(=O)[C@@H]1C[C@@H](Oc2cc3c(Nc4cccc(Cl)c4F)ncnc3cc2OC)CCN1C`, the IC50 in assay [16] was found to be 0.061 µM.

In assay [22], `Cn1c(NCc2cccc(C(F)(F)F)c2)cc(=O)n(C)c1=O` came in with a half-inhibitory concentration (IC50) greater than 50 µM.

In assay [23], `C#Cc1cccc(Nc2ncnc3cc(OC)c(OCCCCC(=O)O)cc23)c1` registered a concentration for half-maximal inhibition (IC50) of no more than 0.1 µM.

In assay [24], `COc1cc2ncnc(Nc3ccccc3)c2cc1OC` registered a half-inhibitory concentration (IC50) of 0.05 µM.

The compound `O=S(=O)(CCc1cccc(C(F)(F)F)c1)Cc1cc(N2CCOCC2)nc(-c2ccccn2)n1` gave an IC50 in [14] of 6.8 µM.

`Cc1ncnc(Nc2ccc(OCc3cccc(F)c3)c(Cl)c2)c1-c1ccc(CNC2CC2)cc1` had an IC50 in assay [20] of 0.098 µM. This counts as double-digit nanomolar.
